Laboratory results taken from patent US20230138178A1, “Methods and Compositions for Producing a Heterologous Antiviral Compound in a Host Cell” (priority 2019, published 2023).
Entries after “also recorded” stand apart in the source; their conditions may differ.

Columns and labels:
HSV-1 = format: cell-based, Herpes Simplex Virus 1; conditions: mouse macrophages/BMDMs pre-treated with 1 mM ddhC; MOI 1 or 10; 24 hours; flow cytometry; preliminary
Vaccinia virus = format: cell-based
LCMV = format: cell-based, lymphocytic choriomeningitis virus; conditions: BMDMs pre-treated with 1 mM ddhC; MOI 1 or 10; 24 hours; qPCR; preliminary
M. tuberculosis = M. tuberculosis growth in ddhC-stimulated macrophages; format: cell-based, Mycobacterium tuberculosis; conditions: ddhC-stimulated macrophages vs Vehicle or Cytidine; preliminary
[1] = test system: TLR-mediated NFkB activation; assay: TLR-mediated NFkB activation, RAW264.7 NFkB reporter cells; format: cell-based; conditions: for TLR-mediated NFkB activation: RAW264.7 NFkB reporter, pre-treated overnight, 500 ng/mL LPS, 1 μg/mL PAM, or 1 μg/mL R848
[2] = test system: TLR-mediated Type 1 interferon signaling; assay: TLR-mediated Type 1 interferon signaling in macrophages; format: cell-based
flavivirus = conditions: endogenously produced and exogenously administered; Gizzi et al., 2018; cited from earlier work
host cell physiology = conditions: cited from earlier work
Viperin expression = Viperin expression in Poly(I:C)-stimulated BMDMs (qPCR); conditions: 1 mM ddhC co-stimulated with 25 ug/mL Poly(I:C)
ZIKV = conditions: previous study; cited from earlier work
HCV = conditions: previous study; cited from earlier work
WNV = conditions: previous study; cited from earlier work
DV = conditions: previous study; cited from earlier work

Row | Compound | HSV-1 replication / infectivity (HSV-1) | Vaccinia virus infection (Vaccinia virus) | LCMV replication (LCMV) | M. tuberculosis growth restriction (M. tuberculosis) | TLR-mediated NFkB activation [1] | TLR-mediated NFkB signaling in macrophages ([1]; macrophages, preliminary data) | TLR-mediated Type 1 interferon signaling ([2]; macrophages, preliminary data) | flavivirus infection restriction (flavivirus) | toxicity to the host (host cell physiology) | Poly(I:C)-induced Viperin upregulation (Viperin expression) | TLR4-mediated Type 1 interferon induction ([2]; preliminary results) | suppression of ZIKV (ZIKV) | suppression of HCV (HCV) | suppression of WNV (WNV) | suppression of DV (DV) | cytotoxic effects on host cell physiology (host cell physiology)
1 | Nc1ccn([C@@H]2OC(CO)=C[C@H]2O)c(=O)n1 [ddhC] | increases replication; also recorded: increasing | negligible effects | suppresses replication | lead to restriction; also recorded: restrict M. tuberculosis growth greater than those treated with Vehicle or Cytidine | agonize | modulates | modulates | restricts | minimal evidence of toxicity | dampened |  |  |  |  |  | 
2 | Nc1ccn([C@@H]2OC(COP(=O)(O)OP(=O)(O)OP(=O)(O)O)=C[C@H]2O)c(=O)n1 [ddhCTP, 3′-deoxy-3′, 4′-didehydro-CTP] | increases |  |  |  |  |  |  | restricts | minimal evidence of toxicity |  | suppresses | can suppress | can suppress | can suppress | can suppress | no cytotoxic effects
3 | Nc1nc2c(ncn2[C@@H]2OC(CO)=C[C@H]2O)c(=O)[nH]1 [ddhG] |  |  |  |  | agonize |  |  |  |  |  |  |  |  |  |  | 
